Measured values taken from ChEMBL document CHEMBL4011652, “Discovery of Novel Potent Reversible and Irreversible Myeloperoxidase Inhibitors Using Virtual Screening Procedure” (J Med Chem, 2017).
Calls of active or inactive are those of the source. The rule behind the calls is not given here.

Tests used:
[1] = target: T1, Myeloperoxidase (Homo sapiens) (UniProt P05164); assay: Inhibition of recombinant MPO (unknown origin) assessed as reduction in taurine chloramine production at 5 uM preincubated with enzyme and taurine followed by H2O2 addition measured after 5 mins relative to control
T1 sequence (whole entry): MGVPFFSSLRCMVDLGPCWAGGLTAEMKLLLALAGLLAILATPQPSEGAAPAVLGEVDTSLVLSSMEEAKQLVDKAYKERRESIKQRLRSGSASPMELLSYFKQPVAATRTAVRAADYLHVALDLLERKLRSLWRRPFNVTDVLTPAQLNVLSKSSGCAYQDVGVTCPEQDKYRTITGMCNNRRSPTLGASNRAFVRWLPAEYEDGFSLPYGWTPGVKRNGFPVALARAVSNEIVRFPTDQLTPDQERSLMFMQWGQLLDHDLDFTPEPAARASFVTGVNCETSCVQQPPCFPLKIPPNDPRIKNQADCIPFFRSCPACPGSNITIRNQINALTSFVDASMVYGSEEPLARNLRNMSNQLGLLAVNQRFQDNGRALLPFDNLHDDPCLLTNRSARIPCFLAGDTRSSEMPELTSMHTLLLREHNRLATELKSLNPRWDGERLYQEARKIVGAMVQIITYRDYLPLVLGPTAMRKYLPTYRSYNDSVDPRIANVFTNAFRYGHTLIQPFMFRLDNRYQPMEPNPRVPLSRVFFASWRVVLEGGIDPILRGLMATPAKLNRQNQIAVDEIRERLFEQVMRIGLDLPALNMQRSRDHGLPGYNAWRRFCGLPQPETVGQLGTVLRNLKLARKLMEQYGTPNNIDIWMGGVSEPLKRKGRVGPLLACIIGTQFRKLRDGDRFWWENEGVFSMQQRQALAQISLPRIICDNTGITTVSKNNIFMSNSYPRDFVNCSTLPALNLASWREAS

[2] = target: T2, Myeloperoxidase (Homo sapiens, UniProt P05164); assay: Inhibition of recombinant MPO (unknown origin) assessed as reduction in taurine chloramine production preincubated with enzyme and taurine followed by H2O2 addition measured after 5 mins
T2 sequence (P05164 whole entry): T1 sequence (whole entry)

[3] = target: T1, Myeloperoxidase (Homo sapiens); assay: Inhibition of recombinant MPO (unknown origin) assessed as reduction in TMB peroxidation by measuring residual activity at 5 uM in presence of H2O2 incubated for 5 mins followed by 100 fold enzyme dilution relative to control
[4] = target: T1, Myeloperoxidase (Homo sapiens); assay: Inhibition of recombinant MPO (unknown origin) assessed as reduction in TMB peroxidation by measuring residual activity at 5 uM in presence of H2O2 and NaCl incubated for 5 mins followed by 100 fold enzyme dilution relative to control
[5] = target: T1, Myeloperoxidase (Homo sapiens); assay: Inhibition of recombinant MPO (unknown origin) assessed as reduction in TMB peroxidation by measuring residual activity at 5 uM in absence of H2O2 incubated for 5 mins followed by 100 fold enzyme dilution relative to control
[6] = target: T2, Myeloperoxidase; assay: Inhibition of recombinant MPO (unknown origin) assessed as reduction in LDL oxidation in presence of H2O2 and HCl after 5 mins by ELISA
[7] = tested on: NHDF; assay: Cytotoxicity against NHDF assessed as reduction in cell viability after 72 hrs by MTT assay; assay type: cell-based; conditions: Homo sapiens
[8] = target: Lactoperoxidase (Bos taurus, UniProt P80025); assay: Inhibition of bovine milk LPO assessed as reduction in NaOSCN production in presence of H2O2/NaSCN after 5 mins
[9] = tested on: Plasma; assay: Plasma concentration in po dosed human; assay type: ADME, organism-based; conditions: in vivo
[10] = Selectivity ratio of IC50 for bovine milk LPO to IC50 for recombinant MPO (unknown origin)
[11] = target: T1, Myeloperoxidase (Homo sapiens); assay: Inhibition of MPO (unknown origin) assessed as apparent bi-molecular rate constant for PorFe(4)=O radical reduction by stopped-flow spectroscopic analysis
[12] = target: T1, Myeloperoxidase (Homo sapiens); assay: Inhibition of MPO (unknown origin) assessed as apparent bi-molecular rate constant for PorFe(4)-OH reduction by stopped-flow spectroscopic analysis
[13] = target: T2, Myeloperoxidase; assay: Inhibition of MPO in human neutrophils assessed as reduction in HOCl production preincubated for 30 mins followed by H2O2 addition by APF staining based flow cytometry
[14] = tested on: Neutrophil; assay: Induction of apoptosis in human neutrophils assessed as compound concentration required for effect after 30 mins by JC1 staining based flow cytometry; assay type: cell-based; conditions: 0.5 h
[15] = tested on: Neutrophil; assay: Induction of apoptosis in human neutrophils up to 1 mM after 30 mins by JC1 staining based flow cytometry; assay type: cell-based; conditions: 0.5 h
[16] = tested on: Neutrophil; assay: Induction of apoptosis in human neutrophils assessed as increase in necrotic cells at >= 50 uM after 30 mins by JC1 staining based flow cytometry; assay type: cell-based; conditions: 0.5 h
[17] = target: T1, Myeloperoxidase (Homo sapiens); conditions: 5 uM
Description: Irreversible inhibition of recombinant MPO (unknown origin) assessed as reduction in guaiacol peroxidation by measuring enzyme activity recovery at 5 uM incubated for 20 mins followed by 200 fold dilution measured for 10 mins

[18] = target: T1, Myeloperoxidase (Homo sapiens); conditions: 1 to 5 uM
Description: Inhibition of MPO in human neutrophils assessed as reduction in HOCl production at 1 to 5 uM preincubated for 30 mins followed by H2O2 addition by APF staining based flow cytometry relative to control

CN(C)CCCN1c2ccccc2Sc2ccc(C(F)(F)F)cc21
inhibition [1]: 12.3%

Cc1nc(NC(=N)N)nc2cc(Br)ccc12
IC50 [2]: 0.106 µM

Cc1cccc(Nc2ccccc2C(=O)O)c1C [MEFENAMIC ACID]
Activity [3]: 82% | Activity [4]: 87% | IC50 [2]: 0.98 µM | Activity [5]: 87% | IC50 [6]: 2.21 µM

O=c1c(O)c(-c2ccc(O)cc2)oc2cc(O)cc(O)c12 [KAEMPFEROL]
Activity [3]: 81% | Activity [4]: 84% | IC50 [2]: 2.24 µM | Activity [5]: 78%

CCN(CC)CCNC(=O)c1cc(Cl)c(N)cc1OC [METOCLOPRAMIDE]
IC50 [7]: > 50 µM | IC50 [2]: 0.35 to 1 µM | IC50 [8]: > 5 µM | concentration [9]: 0.2 to 0.4 µM | IC50 [6]: > 5 µM

O=c1cc(-c2ccc(O)cc2)oc2cc(O)cc(O)c12 [APIGENIN]
IC50 [2]: 3.8 µM | IC50 [8]: 17.8 µM | Ratio IC50 [10]: 5.6

Cc1nc(N=C(N)N)nc2cc(F)ccc12
IC50 [2]: 0.04 µM | IC50 [8]: 3.9 µM | Ratio IC50 [10]: 30

CSc1ccc2c(c1)N(CC[C@H]1CCCCN1C)c1ccccc1S2
Kapp [11]: 5.2 ×10⁶ /M/s | inhibition [1]: 24.2% | IC50 [2]: > 5 µM | Kapp [12]: 1.7 ×10⁴ /M/s

Cc1nc(N=C(N)N)nc2ccc(Br)cc12
IC50 [2]: 0.756 µM

COc1cc(N[C@H](C)CCCN)c2ncccc2c1
Activity [3]: 91% | Activity [4]: 86% | IC50 [7]: > 50 µM | IC50 [2]: 0.3 µM | IC50 [8]: 0.8 µM | Activity [5]: 86% | Ratio IC50 [10]: 3

N#CC1=C(N)Oc2cc(O)ccc2C1c1cccc(C(F)(F)F)c1 (stereo not drawn)
IC50 [2]: 10.1 µM

C[C@H]1CN(c2cc3c(cc2F)c(=O)c(C(=O)O)cn3C2CC2)CCN1
IC50 [2]: > 5 µM

c1c2c(cc3c4n(nc13)CCS4)OCO2
IC50 [2]: 0.085 µM

CCn1cc(C(=O)O)c(=O)c2cc(F)c(N3CCN[C@@H](C)C3)c(F)c21
Kapp [11]: 3.1 ×10⁴ /M/s | inhibition [1]: inactive | IC50 [2]: > 5 µM | Kapp [12]: 1.2 ×10³ /M/s

O[C@@H]1CN[C@H](c2nc(Cc3ccc(F)cc3Cl)no2)C1
IC50 [2]: 4.68 µM

Nc1cc(=O)[nH]c(CSc2ccc(F)c3ccccc23)n1
inhibition [1]: 37.2%

O=c1cc(-c2ccc(O)cc2)oc2cc(O)ccc12
IC50 [2]: 5.79 µM

Cc1nc(NC(=N)N)nc2ccccc12
IC50 [2]: 0.9 µM

NCCCCc1c[nH]c2ccc(F)cc12
IC50 [2]: 0.008 µM

O=C(N/N=C/c1ccc([N+](=O)[O-])o1)c1ccc(O)cc1 [NIFUROXAZIDE]
IC50 [2]: > 5 µM

Fc1ccc2[nH]c([C@@H]3CCN(CC4NC=CN4)C3)nc2c1
Activity [3]: 84% | IC50 [13]: 314 µM | Activity [4]: 84% | Activity [14]: > 50 µM | IC50 [7]: > 50 µM | IC50 [2]: 0.05 µM | IC50 [8]: > 5 µM | Activity [5]: 83% | Activity [15]: Non-Toxic | IC50 [6]: 0.12 µM

CC(C)NCC(=O)c1nc2cc(F)ccc2[nH]1
Activity [3]: 87% | Activity [4]: 81% | IC50 [7]: > 50 µM | IC50 [2]: 0.13 µM | IC50 [8]: > 5 µM | Activity [5]: 79%

CCN1CCC[C@H]1CNC(=O)c1cc(S(N)(=O)=O)ccc1OC [LEVOSULPIRIDE]
IC50 [2]: 7.68 µM

NNc1nncc2ccccc12 [HYDRALAZINE]
Kapp [11]: 7.1 ×10⁶ /M/s | Activity [3]: 9% | Activity [4]: 6% | IC50 [7]: > 50 µM | IC50 [8]: 1.2 µM | Activity [5]: 76% | Ratio IC50 [10]: 1.3 | IC50 [6]: 2.36 µM

Fc1ccc2oc([C@H]3CCNC3)nc2c1
IC50 [7]: > 50 µM | IC50 [2]: 1.74 µM

Cc1nc(N=C(N)N)nc2cc(Cl)ccc12
IC50 [2]: 0.096 µM

Cc1nc(N=C(N)N)nc2ccc(F)cc12
IC50 [2]: 0.145 µM

Fc1ccc([C@@H]2CCNC[C@H]2COc2ccc3c(c2)OCO3)cc1 [PAROXETINE]
IC50 [2]: 0.02 µM

COc1ccc2c(C)nc(NC(=N)N)nc2c1
Kapp [11]: 1.9 ×10⁶ /M/s | Activity [3]: 4% | IC50 [13]: 93.1 µM | Activity [4]: 5% | Activity [16]: Toxic | inhibition [17]: Active | Activity [14]: > 50 µM | inhibition [18]: 67 to 71% | IC50 [7]: 17 µM | IC50 [2]: 0.044 µM | IC50 [8]: 3.2 µM | Activity [5]: 84% | Activity [15]: Non-Toxic | Ratio IC50 [10]: 73 | IC50 [6]: 0.09 µM

Cc1nc(NC(=N)N)nc2ccc(Cl)cc12
IC50 [2]: 0.63 µM

Cc1ccc(-c2cc(C(F)(F)F)nn2-c2ccc(S(N)(=O)=O)cc2)cc1
inhibition [1]: 11%

C[C@H](COc1ccccc1)N[C@@H](C)[C@@H](O)c1ccc(O)cc1
inhibition [1]: 5.32%

O=c1c(O)c(-c2ccc(O)c(O)c2)oc2cc(O)cc(O)c12 [QUERCETIN]
Activity [3]: 78% | Activity [4]: 79% | IC50 [7]: > 50 µM | IC50 [2]: 1.15 µM | IC50 [8]: 6.1 µM | Activity [5]: 72% | Ratio IC50 [10]: 5 | IC50 [6]: 3.1 µM
